Here are results for 20 molecules from patent publication US20260193255A1, “7-AZAINDOLE COMPOUNDS, PREPARATION METHOD THEREFOR, AND USE THEREOF” (Fudan University, priority 2022, published 2026).

SMILES strings stand for the structures.

The term IC50 denotes the concentration needed to halve the response being measured.

In one assay the test system is mouse myoblasts (C2C12). As to the kind of experiment: Atrophy of mouse myoblasts (C2C12) induced by C26 cell supernatant, myotube diameter by HE staining. The class given is cell-based. Particulars: 48 hours treatment, C26 supernatant-induced C2C12 myotubes. As to the method:
C2C12 cells were inoculated in 24-well plates. The culture system was high-glucose DMEM medium containing 10% FBS with 1% penicillin-streptomycin. The plates were placed in a 5% CO2, 37° C. environment. When the cell growth density reached 50%-60%, the culture system was replaced with high-glucose DMEM culture medium containing 2% HS with 1% penicillin-streptomycin. Fresh 2% HS differentiation medium was replaced every 48 hours, and the cells were differentiated into mature cells on the 5th or 6th day. Additionally, C26 cells were inoculated in T75 flasks. The culture system was high-glucose DMEM medium containing 10% FBS with 1% penicillin-streptomycin. The flasks were placed in a 5% CO2, 37° C. environment. When subculturing, the cells were subcultured at 6 million cells/flask. After culturing in 20 ml of culture medium for 48 hours, the supernatant was collected and centrifuged at 1000 rpm for 3 mins. The supernatant was collected and centrifuged at 4000 rpm for 10 mins to obtain the C26 supernatant. The C26 supernatant and 2% HS differentiation solution were mixed at a ratio of 1:1 (volume ratio) as the muscle atrophy induction solution. Except for the control group in which 2% HS differentiation solution was added, for the other groups, an equivalent amount of muscular atrophy induction solution was added. One group was used as the model group, and the other groups were used as the treatment and experimental groups.
The diameter of myotubes after differentiation of mouse myoblasts (C2C12) was evaluated by using the diameter measurement method. The method for measuring the diameter of myotubes was as follows: after 48 hours of treatment, the myotubes were fixed with a fixative (anhydrous ethanol: formaldehyde: glacial acetic acid (volume ratio)=20:2:1) for more than 1 h and stained. The staining method used in the experiment is hematoxylin-eosin staining, referred to as HE staining for short. Hematoxylin stain is alkaline and positively charged, and it can easily bind to the negatively charged and acidic deoxyribonucleic acid (DNA) in the cell nucleus through ionic bonds to stain it blue; eosin is an acidic dye that dissociates into negatively charged anions in water, and it can easily bind to the positively charged amino groups of proteins in the cytoplasm to stain it red. The stained cells were placed under a high-power microscope to take pictures (magnification: 200 times), and the diameter of myotube cells was statistically analyzed using image J software. The muscle atrophy reversal rate was calculated according to the following formula: Muscle atrophy reversal rate=(average value of myotubes in the treatment group-average value of myotubes in the model group)/(average value of myotubes in the control group-average value of myotubes in the model group)×100%

In the next assay the target is ActRIIB (Homo sapiens, UniProt Q13705). In words: ActRIIB inhibitory activity, ADP-Glo assay kit. The class given is biochemical. To be noted: ATP 25 μM, substrate 0.1 mg/mL, ActRIIB 20.0 ng/μL. As to the method:
The ATP and substrate concentrations recommended by the ADP-Glo™ assay kit were used, which were 25 μM and 0.1 mg/mL, respectively, and a series of isocratic final ActRIIB concentrations were set up, which were 0, 0.47, 0.94, 1.88, 3.75, 7.5, 15, 30, and 60 ng/μL, respectively. According to the […] values obtained in the experiment, an ActRIIB concentration titration curve was drawn. The ActRIIB concentrations corresponding to the ratio of the signal value to the background value (i.e., signal-to-background ratio, SBR) in the range of 5-10 times are suitable for screening compounds for inhibition of ActRIIB activity. From the ActRIIB concentration titration curve, the final ActRIIB concentrations corresponding to SB5 and SB10 were calculated to be 14.9 and 23.7 ng/μL, respectively. Finally, a final concentration of 20.0 ng/μL was selected as the experimental concentration for screening compounds for their inhibitory activity against ActRIIB. The inhibitory efficiency of 7-azaindole compounds on ActRIIB was detected at concentrations of 0.1, 1, 10, and 100 nM, respectively.
(ADP-Glo first removes unused ATP, then detects ADP through luciferase.)

[1] abbreviates: Mus musculus, read-out: Myotube atrophy reversal rate.

Sequence of ActRIIB (Q13705 19-512): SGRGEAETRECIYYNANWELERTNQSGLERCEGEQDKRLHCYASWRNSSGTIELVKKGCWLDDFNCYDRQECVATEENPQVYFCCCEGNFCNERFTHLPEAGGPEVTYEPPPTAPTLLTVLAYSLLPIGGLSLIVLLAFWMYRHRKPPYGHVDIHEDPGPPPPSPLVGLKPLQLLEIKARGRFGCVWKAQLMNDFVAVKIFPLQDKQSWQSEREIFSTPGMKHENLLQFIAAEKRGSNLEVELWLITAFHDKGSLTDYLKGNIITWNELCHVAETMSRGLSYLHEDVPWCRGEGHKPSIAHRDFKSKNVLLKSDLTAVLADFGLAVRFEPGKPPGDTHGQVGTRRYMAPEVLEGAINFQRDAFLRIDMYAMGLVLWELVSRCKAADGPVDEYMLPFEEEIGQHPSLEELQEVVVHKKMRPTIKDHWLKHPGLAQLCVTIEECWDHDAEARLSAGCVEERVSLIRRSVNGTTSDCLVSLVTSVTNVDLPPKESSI

As for `CN1CCN(c2ccc(-c3cnc4[nH]cc(-c5cccnc5)c4c3)cc2)CC1` [Compound 22, 5-[4-(4-methylpiperazin-1-yl)phenyl]-3-(pyridin-3-yl)-1H-pyrrolo[2,3-b]pyridine], the inhibition at 5 µM in the assay on mouse myoblasts (C2C12) (setting [1]) was 75.4%. In addition, half-maximal inhibition against ActRIIB (IC50) required 87.3 nM.

Take `Cc1n[nH]cc1-c1c[nH]c2ncc(-c3ccc(N4CCN(C)CC4)cc3)cc12` [Compound 4, 3-(3-methyl-1H-pyrazol-4-yl)-5-[4-(4-methylpiperazin-1-yl)phenyl]-1H-pyrrolo[2,3-b]pyridine]: the inhibition at 5 µM with mouse myoblasts (C2C12) (setting [1]) is 63.6%. Further, the IC50 against ActRIIB was 58.6 nM.

`CN1CCN(c2ccc(-c3cnc4[nH]cc(-c5cnn(C)c5)c4c3)cc2)CC1` [Compound 9, 5-[4-(4-methylpiperazin-1-yl)phenyl]-3-(1-methylpyrazol-4-yl)-1H-pyrrolo[2,3-b]pyridine]: in the assay on mouse myoblasts (C2C12) (setting [1]), the inhibition at 2.5 µM was found to be 61.1%. The molecule also returned an IC50 on ActRIIB of 70.8 nM.

On to `CN1CCN(Cc2ccc(-c3cnc4[nH]cc(-c5ccnn5C)c4c3)cc2)CC1` [Compound 15, 5-{4-[(4-methylpiperazin-1-yl)methyl]phenyl}-3-(2-methylpyrazol-3-yl)-1H-pyrrolo[2,3-b]pyridine], for which, in the assay with mouse myoblasts (C2C12) (setting [1]), the inhibition at 2.5 µM is 47.5%, the inhibition at 5 µM was 99.1% and the inhibition at 10 µM was found to be 109%.

As to `CN1CCN(c2ccc(-c3cnc4[nH]cc(-c5cn[nH]c5)c4c3)cc2)CC1` [Compound 1, 3-(1H-pyrazol-4-yl)-5-[4-(4-methylpiperazin-1-yl)phenyl]-1H-pyrrolo[2,3-b]pyridine], the inhibition at 2.5 µM in the assay with mouse myoblasts (C2C12) (setting [1]) came out at 63.5%. The molecule also displayed an IC50 against ActRIIB of 20.4 nM.

Take `CCn1nccc1-c1c[nH]c2ncc(-c3ccc(N4CCN(C)CC4)cc3)cc12` [Compound 7, 3-(2-ethylpyrazol-3-yl)-5-[4-(4-methylpiperazin-1-yl)phenyl]-1H-pyrrolo[2,3-b]pyridine]: the inhibition at 10 µM in the assay with mouse myoblasts (C2C12) (setting [1]) came to 77.1%. On ActRIIB, the IC50 amounted to 4.4 nM.

For the molecule `Cn1nccc1-c1c[nH]c2ncc(-c3ccc(N4CCNCC4)cc3)cc12` [Compound 17, 3-(2-methylpyrazol-3-yl)-5-[4-(piperazin-1-yl)phenyl]-1H-pyrrolo[2,3-b]pyridine], the inhibition at 1.25 µM in the assay on mouse myoblasts (C2C12) (Mus musculus, 1.25 μM, read-out: Myotube atrophy reversal rate) came out at 39.9%. Further, in the assay with mouse myoblasts (C2C12) (setting [1]), the inhibition at 2.5 µM was found to be 65% and the inhibition at 5 µM came to 97.7%. Also, the IC50 on ActRIIB is 3.61 nM.

With `CC(C)n1nccc1-c1c[nH]c2ncc(-c3ccc(N4CCN(C)CC4)cc3)cc12` [Compound 8, 5-[4-(4-methylpiperazin-1-yl)phenyl]-3-[2-(prop-2-yl)pyrazol-3-yl]-1H-pyrrolo[2,3-b]pyridine], the inhibition at 5 µM in the assay with mouse myoblasts (C2C12) (setting [1]) worked out at 62.2%. On ActRIIB, this molecule came in with an IC50 of 2.6 nM.

As to `CN1CCN(c2ccc(-c3cnc4[nH]cc(-c5ccncc5)c4c3)cc2)CC1` [Compound 24, 5-[4-(4-methylpiperazin-1-yl)phenyl]-3-(pyridin-4-yl)-1H-pyrrolo[2,3-b]pyridine], in the assay with mouse myoblasts (C2C12) (setting [1]), the inhibition at 5 µM was determined as 76.7%. Also, half-maximal inhibition on ActRIIB (IC50) required 59.3 nM.

Turning to `Cn1nccc1-c1c[nH]c2ncc(-c3ccc(OCCN4CCOCC4)cc3)cc12` [Compound 12, 3-(2-methylpyrazol-3-yl)-5-(4-{[2-(1,4-oxazacyclohexan-4-yl)ethyl]oxy}phenyl)-1H-pyrrolo[2,3-b]pyridine], the inhibition at 5 µM in the assay with mouse myoblasts (C2C12) (setting [1]) is 73.8%.

Regarding `Cc1n[nH]c(C)c1-c1c[nH]c2ncc(-c3ccc(N4CCN(C)CC4)cc3)cc12` [Compound 5, 3-(3,5-dimethyl-1H-pyrazol-4-yl)-5-[4-(4-methylpiperazin-1-yl)phenyl]-1H-pyrrolo[2,3-b]pyridine], the inhibition at 5 µM with mouse myoblasts (C2C12) (setting [1]) came to 79.5%. On ActRIIB, this molecule returned an IC50 of 1.2 nM.

Turning to `CN1CCN(C(=O)c2ccc(-c3cnc4[nH]cc(-c5ccnn5C)c4c3)cc2)CC1` [Compound 14, (4-methylpiperazin-1-yl) {4-[3-(2-methylpyrazol-3-yl)-1H-pyrrolo[2,3-b]pyridin-5-yl]phenyl}ketone], the inhibition at 10 µM with mouse myoblasts (C2C12) (setting [1]) was found to be 57%.

With `CN1CCN(c2ccc(-c3cnc4[nH]cc(-c5ccccc5)c4c3)cc2)CC1` [Compound 25, 5-[4-(4-methylpiperazin-1-yl)phenyl]-3-phenyl-1H-pyrrolo[2,3-b]pyridine], the inhibition at 5 µM with mouse myoblasts (C2C12) (setting [1]) is 77.1%. Besides, the IC50 on ActRIIB was 1.2 nM.

As for `c1cc(-c2c[nH]c3ncc(-c4ccc(OCCN5CCOCC5)cc4)cc23)n[nH]1` [Compound 20, 3-(1H-pyrazol-3-yl)-5-(4-[[2-(1,4-oxazacyclohexan-4-yl)ethyl]oxy]phenyl)-1H-pyrrolo[2,3-b]pyridine], the “Myotube atrophy reversal rate” value in the assay on mouse myoblasts (C2C12) (1.25 μM) stood at 54.04%.

In the case of `CCN(CC)CCOc1ccc(-c2cnc3[nH]cc(-c4ccnn4C)c3c2)cc1` [Compound 18, 5-(4-{[2-(diethylamino)ethyl]oxy}phenyl)-3-(2-methylpyrazol-3-yl)-1H-pyrrolo[2,3-b]pyridine], the inhibition at 10 µM in the assay on mouse myoblasts (C2C12) (setting [1]) came out at 84.5%. At ActRIIB, the IC50 is 78.9 nM.

As for `Cc1noc(C)c1-c1c[nH]c2ncc(-c3ccc(N4CCN(C)CC4)cc3)cc12` [Compound 19, 3-(3,5-dimethylisoxazol-4-yl)-5-[4-(4-methylpiperazin-1-yl)phenyl]-1H-pyrrolo[2,3-b]pyridine], the inhibition at 5 µM with mouse myoblasts (C2C12) (setting [1]) turned out to be 69.4%. For the same molecule, the IC50 against ActRIIB is 24.2 nM.

Consider `CN1CCN(c2ccc(-c3cnc4[nH]cc(-c5ccnn5C)c4c3)cc2)CC1` [Compound 6, 5-[4-(4-methylpiperazin-1-yl)phenyl]-3-(2-methylpyrazol-3-yl)-1H-pyrrolo[2,3-b]pyridine], for which, in the assay with mouse myoblasts (C2C12) (setting [1]), the inhibition at 2.5 µM was 45.9%, the inhibition at 5 µM was determined as 79.1% and the inhibition at 10 µM was 99.8%. In addition, the IC50 at ActRIIB is 1.4 nM.

Turning to `CN1CCN(c2ccc(-c3cnc4[nH]cc(-c5cncnc5)c4c3)cc2)CC1` [Compound 23, 5-[4-(4-methylpiperazin-1-yl)phenyl]-3-(pyrimidin-5-yl)-1H-pyrrolo[2,3-b]pyridine], the inhibition at 5 µM in the assay on mouse myoblasts (C2C12) (setting [1]) came to 97.9%. This molecule also had an IC50 against ActRIIB of 4.8 nM.

In the case of `Cn1nccc1-c1c[nH]c2ncc(-c3ccc(OCCN4CCCCC4)cc3)cc12` [Compound 13, 5-(4-{[2-(hexahydropyridin-1-yl)ethyl]oxy}phenyl)-3-(2-methylpyrazol-3-yl)-1H-pyrrolo[2,3-b]pyridine], the inhibition at 10 µM in the assay with mouse myoblasts (C2C12) (setting [1]) was 86.2%. For the same molecule, on ActRIIB, inhibition was half-maximal at 12.6 nM (IC50).

Take `Cn1nccc1-c1c[nH]c2ncc(-c3ccc(N4CCOCC4)cc3)cc12` [Compound 16, 3-(2-methylpyrazol-3-yl)-5-[4-(1,4-oxazacyclohexan-4-yl)phenyl]-1H-pyrrolo[2,3-b]pyridine]: the inhibition at 5 µM with mouse myoblasts (C2C12) (setting [1]) was determined as 78%. Also, half-maximal inhibition against ActRIIB (IC50) was put at 1.86 nM.
